Measured values published in patent US20210395327A1, “Growth Hormone-Releasing Hormone Antagonists and Uses Thereof” (United States Government As Represented By The Department …, priority 2019, published 2021).
Non-standard residues stand in square brackets, D forms with d. Residues, ends and D or L forms follow the SMILES beside them. *: point of attachment. Phenylacetyl(2,3,4,5,6-F5) = O=C(Cc1c(F)c(F)c(F)c(F)c1F)*; Phe(F5) = N[C@@H](Cc1c(F)c(F)c(F)c(F)c1F)C(=O)O; Phe(4-Cl) = N[C@@H](Cc1ccc(Cl)cc1)C(=O)O; hArg = N=C(N)NCCCC[C@H](N)C(=O)O; 12Ado = NCCCCCCCCCCCC(=O)O; Nle = CCCC[C@H](N)C(=O)O; Abu = CC[C@H](N)C(=O)O

What was measured:
[1] = test system: GH release from rat pituitary cells; experiment: Inhibition of GH release from rat pituitary cells in vitro (GH ELISA); type: cell-based; conditions: for Relative GH release: analogs 20 nM, then with 1 nM GHRH(1-29)NH2 for 30 minutes, Control = 1.00; for inhibitory effects on the release of GH, compared with MIA-602 (in words): rat pituitary cells in vitro, 20 nM
Method: In vitro assessment of the antagonistic activity of GHRH analogs. Rats were decapitated and pituitaries were collected in pre-warmed HBSS (Hanks' Balanced Salt Solution). Tissue was then cut into small pieces and digested in HBSS medium containing 3% BSA, 50 μg/ml gentamycin and 0.5% collagenase for 50 minutes at 37° C. Cells were further dispersed by pipetting and passed through a 100 μm cell strainer with the addition of DMEM containing 50 μg/ml gentamycin. 10% horse serum and 2.5% FBS (growth medium). Cells were harvested at 475×g for 2 minutes, resuspended in fresh growth medium and seeded onto poly-D-lysine-coated 24-well plates (7 pituitaries/plate). Cells were left to recover for 4 days. Growth medium was then replaced with serum-free DMEM for 4 hours and GHRH analogs (at concentration of 20 nM) were added in DMEM containing 0.1% BSA for 30 minutes. Cells were replenished with medium containing the same concentration of the analogs and 1 nM GHRH(1-29)NH2 for 30 minutes. Medium from this step was collected, centrifuged at 800 g for 3 minutes and GH concentration was determined by ELISA (ALPCO Diagnostics, Mill Valley, Calif.) according to the manufacturer's instruction.

HT-29 colon cancer cells = experiment: In vitro cell viability, HT-29; type: cell-based, human; conditions: Table 3B; 5 μM for 72 H; MIA-602 = 1
Method: The inhibitory effects of the various synthesized GHRH antagonists were tested in cell proliferation assays in various human cancer cell lines including stomach cancer (KATOIII, N87), colon cancer (HT-29), urothelial cancer (J82, RT4), pancreatic cancer (PANC-1, CFPAC-1), prostatic cancer (PC3), breast cancer (MX-1, HCC1806), ovarian cancer (SK-OV-3, OVCAR-3) and lung cancer (HCC827, H460).
(§1) Cell culture. Human cancer cell lines including pancreatic (PANC-1 and CFPAC-1), lung (HCC827 and H460), stomach (NCI-N87 and KATOIII), urothelial (J82, RT4), prostatic (PC3), breast (MX-1 and HCC 1806), colorectal (HT-29), and ovarian (SK-OV-3 and OVCAR-3) were obtained from the American Type Culture Collection (ATCC) and cultured at 37° C. in a humidified 95% air/5% CO2 atmosphere in the medium recommended by ATCC.
In vitro cell viability. Cell viability was analyzed as follows: cancer cells including pancreatic (PANC-1 and CFPAC-1), lung (HCC827 and H460), stomach (NCI-N87 and KATOIII), urothelial (J82, RT4), prostatic (PC3) and breast (MX-1 and HCC 1806), colorectal (HT-29) and ovarian (SK-OV-3 and OVCAR-3) were grown on 96 well plates to ˜60% confluence, the cells were starved for 24 h in culture medium containing 0.5% FBS. Cells were then treated with GHRH antagonists MIA602 AVR compounds at concentrations of 1, 2.5 or 5 μM, or vehicle (0.1% DMSO) in quintuplicates for 72 hours. The medium was replaced every 48 hours. Cell viability was measured using CellTiter 96 aqueous one solution kit (Promega). Inhibitory effects of tested AVR compounds in comparison to that of MIA602 are presented as inhibitory potency.
Inhibitory effects of selected AVR compounds in comparison to that of MIA602 are presented as inhibitory potency (e.g., percentage of inhibition). […] The cell lines tested including lung cancer HCC827 (FIG. 2A), pancreatic cancer CFPAC-1 (FIG. 2B), stomach cancer N87 (FIG. 2C), colon cancer HT-29 (FIG. 2D), breast cancers MX-1 and HCC1806 (FIGS. 2 E, F). Based on the results of cell proliferation assay after cancer cells were treated with antagonist at concentration of 5 μM for 72H, the relative inhibitory potency of AVR antagonists in comparison to MIA-602 is summarized in Table 3 A and B. Over 60 AVR compounds were tested in 12 cancer cell lines.
Based on the results of cell proliferation assay after cancer cells were treated with antagonist at concentration of 5 µM for 72H, * at concentration of 2 µM for 72 H.

[2] = test system: stomach cancer N87 xenograft; experiment: Xenograft tumor growth in nude mice, N87; type: in vivo; conditions: for % Inhibition: vs control
Method: The peptides' activity was compared with GHRH antagonist MIA-602. All statistical analyzses were performed from comparing GHRA antagonists to non-treated tumor (control).
Peptides and chemicals. GHRH antagonists MIA-602 and AVR-GHRH antagonists (see Table 2 above) were synthesized by solid phase methods and purified by HPLC. The peptides were dissolved in DMSO and further diluted in 10% 1,2-propanediol. The final concentration of peptides was 50 µg/ml in 10% 1,2-propanediol containing 0.1% of DMSO.
as §1, with “(NCI-N87), prostate” for “(NCI-N87 and KATOIII), urothelial (J82, RT4), prostatic”, “brest” for “breast”, “HCC-1806),” for “HCC 1806),”
Xenograft models of human cancers in nude mice. Female athymic (NCr nu/nu) nude mice, 5- to 6-weeks-old, obtained from the Envigo labs (Tampa, Fla.), were housed in laminar airflow cabinets under pathogen-free conditions with a 12-h light/12-h dark schedule, and were fed autoclaved standard chow and water. To generate mice with xenografted tumors, tumor xenografts were initiated by subcutaneous (s.c.) injection of 107 human cancer cells into female nude mice. After about 4 weeks the resulting tumors were dissected and collected after removing necrosis tissues. The tumors were then cut into particles with size of 3 mm3 and transplanted s.c. by trocar needle into experimental animals. When tumors grew to the size of 50-60 mm3 (by volume), […] of 5 μg of GHRH antagonists MIA-602 or AVR-compounds (2-10 μg as indicated), or vehicle solutions (0.1% DMSO in 10% 1,2-propanediol) respectively. Tumor sizes were measured weekly.
Statistical analysis. One-way ANOVA followed by Bonferroni comparison were performed. Data are expressed as Mean±SEM. To determine statistical significance between animal groups, two-tailed Student's t-test was conducted. Differences were considered significant when p<0.05.
Results. […] FIG. 1A-N represents in vivo inhibition of tumor growth during the treatment with GHRH antagonist MIA-602 and selected AVR antagonists in nude mice xenografted with various human tumors including pancreatic cancer PANC-1 (FIG. 1A) and CFPAC-1 (FIG. 1I); lung cancer HCC827 (FIGS. 1B, C) and H460 (FIG. 1H); stomach cancer N87 (FIGS. 1D-F); colon cancer HT-29 (FIG. 1G); breast cancer MX-1 and HCC-1806 (FIGS. 1J, K); ovarian cancer SK-OV-3 and OVACAR-3 (FIGS. 1 L, M) and prostate cancer PC3 (FIG. 1N). See also Table 5.

[3] = Table 4D, Stomach Ca N87, 10 weeks, 2 μg/day s.c.
[4] = Table 4F, Stomach Ca N87, 4 weeks, 2 μg/day s.c.
[5] = Table 4F, Stomach Ca N87, 4 weeks, 5 μg/day s.c.

## CCCC[C@H](NC(=O)[C@@H](NC(=O)[C@H](CC(=O)O)NC(=O)[C@H](CCC(N)=O)NC(=O)[C@H](CC(C)C)NC(=O)[C@H](CC(C)C)NC(=O)[C@H](CCCCN)NC(=O)[C@H](CCCNC(=N)N)NC(=O)[C@H](C)NC(=O)[C@H](CO)NC(=O)[C@H](CC(C)C)NC(=O)[C@H](CCC(N)=O)NC(=O)[C@H](CC)NC(=O)[C@H](CC(C)C)NC(=O)[C@@H](NC(=O)[C@H](CCCCN)NC(=O)[C@H](CCCNC(=N)N)NC(=O)[C@H](Cc1ccc(OC)cc1)NC(=O)[C@H](CCCCNC(=N)N)NC(=O)[C@H](C)NC(=O)[C@@H](NC(=O)[C@H](Cc1c(F)c(F)c(F)c(F)c1F)NC(=O)[C@@H](NC(=O)[C@H](C)NC(=O)[C@H](CC(=O)O)NC(=O)[C@@H](CCCNC(=N)N)NC(=O)[C@H](Cc1ccc(O)cc1)NC(=O)CCCCCCCCCCCNC(=O)Cc1c(F)c(F)c(F)c(F)c1F)[C@@H](C)CC)[C@@H](C)O)C(C)C)[C@@H](C)CC)C(=O)N[C@H](CCCNC(=N)N)C(=O)N[C@@H](CCCCNC(=N)N)C(=O)NC [AVR-235] ({Phenylacetyl(2,3,4,5,6-F5)-12Ado}-Y[dR]DAI[Phe(F5)]TA[hArg]Y(Me)RKVL[Abu]QLSARKLLQDI[Nle][dR][hArg]-NHMe)
[1]
  Relative GH release: 0.60 ± 0.02
  inhibitory effects on the release of GH, compared with MIA-602 (in words): higher inhibitory effects than MIA-602
HT-29 colon cancer cells
  In vitro relative inhibitory potency in comparison to MIA-602, HT-29: 0.968
[2]; [3]
  Tumor Size (mm^3): 558.60 mm^3
  % Inhibition: 54.4%
[2]; [4]
  Tumor Growth %: 312.80%
  % Inhibition: 64.9%

## CCCC[C@H](NC(=O)[C@@H](NC(=O)[C@H](CC(=O)O)NC(=O)[C@H](CCC(N)=O)NC(=O)[C@H](CC(C)C)NC(=O)[C@H](CC(C)C)NC(=O)[C@H](CCCCN)NC(=O)[C@H](CCCNC(=N)N)NC(=O)[C@H](C)NC(=O)[C@H](CO)NC(=O)[C@H](CC(C)C)NC(=O)[C@H](CCC(N)=O)NC(=O)[C@H](CC)NC(=O)[C@H](CC(C)C)NC(=O)[C@@H](NC(=O)[C@H](CCCCN)NC(=O)[C@H](CCCNC(=N)N)NC(=O)[C@H](Cc1c(F)c(F)c(F)c(F)c1F)NC(=O)[C@H](CCCCNC(=N)N)NC(=O)[C@H](C)NC(=O)[C@@H](NC(=O)[C@H](Cc1ccc(Cl)cc1)NC(=O)[C@@H](NC(=O)[C@H](C)NC(=O)[C@H](CC(=O)O)NC(=O)[C@@H](CCCNC(=N)N)NC(=O)[C@H](Cc1ccc(O)cc1)NC(=O)CCCCCCCCCCCNC(=O)Cc1c(F)c(F)c(F)c(F)c1F)[C@@H](C)CC)[C@@H](C)O)C(C)C)[C@@H](C)CC)C(=O)N[C@H](CCCNC(=N)N)C(=O)N[C@@H](CCCCNC(=N)N)C(=O)NCCCCCCCCCCCC(N)=O [AVR-353, 5FPhAC-Ada-Tyr-DArg-Asp-Ala-Ile-Cpa-Thr-Ala-Har-5FPhe-Arg-Lys-Val-Leu-Abu-Gln-Leu-Ser-Ala-Arg-Lys-Leu-Leu-Gln-Asp-Ile-Nle-DArg-Har-Ada-NH2] ({Phenylacetyl(2,3,4,5,6-F5)-12Ado}-Y[dR]DAI[Phe(4-Cl)]TA[hArg][Phe(F5)]RKVL[Abu]QLSARKLLQDI[Nle][dR][hArg][12Ado]-NH2)
[1]
  Relative GH release: 0.65 ± 0.08
  inhibitory effects on the release of GH, compared with MIA-602 (in words): higher inhibitory effects than MIA-602
HT-29 colon cancer cells
  In vitro relative inhibitory potency in comparison to MIA-602, HT-29: 1.222
[2]; [4]
  Tumor Growth %: 433.70%
  % Inhibition: 51.4%
[2]; [5]
  Tumor Growth %: 312.20%
  % Inhibition: 65.0%

## CCCC[C@H](NC(=O)[C@@H](NC(=O)[C@H](CC(=O)O)NC(=O)[C@H](CCC(N)=O)NC(=O)[C@H](CC(C)C)NC(=O)[C@H](CC(C)C)NC(=O)[C@H](CCCCN)NC(=O)[C@H](CCCNC(=N)N)NC(=O)[C@H](C)NC(=O)[C@H](CO)NC(=O)[C@H](CC(C)C)NC(=O)[C@H](CCC(N)=O)NC(=O)[C@H](CC)NC(=O)[C@H](CC(C)C)NC(=O)[C@@H](NC(=O)[C@H](CCCCN)NC(=O)[C@H](CCCNC(=N)N)NC(=O)[C@H](Cc1c(F)c(F)c(F)c(F)c1F)NC(=O)[C@H](CCCCNC(=N)N)NC(=O)[C@H](C)NC(=O)[C@@H](NC(=O)[C@H](Cc1ccc(Cl)cc1)NC(=O)[C@@H](NC(=O)[C@H](C)NC(=O)[C@H](CC(=O)O)NC(=O)[C@@H](CCCNC(=N)N)NC(=O)[C@H](Cc1ccc(O)cc1)NC(=O)CCCCCCCCCCCNC(=O)Cc1c(F)c(F)c(F)c(F)c1F)[C@@H](C)CC)[C@@H](C)O)C(C)C)[C@@H](C)CC)C(=O)N[C@H](CCCNC(=N)N)C(=O)N[C@@H](CCCCNC(=N)N)C(=O)NCCCCCCCCCCCC(=O)NC [AVR-354] ({Phenylacetyl(2,3,4,5,6-F5)-12Ado}-Y[dR]DAI[Phe(4-Cl)]TA[hArg][Phe(F5)]RKVL[Abu]QLSARKLLQDI[Nle][dR][hArg][12Ado]-NHMe)
[1]
  Relative GH release: 0.90 ± 0.02
HT-29 colon cancer cells
  In vitro relative inhibitory potency in comparison to MIA-602, HT-29: 1.403
